{
  "source": "patent US11160882B2",
  "about": "“Indirect chromoendoscopy with an oral indigo carmine base preparation” (priority 2014, dated 2021)",
  "origin": "cited, not measured here",
  "key": {"[1]": {"details": "rat, oral (Lethco et al., 1966)"}, "[2]": {"details": "humans (Oravisto K., 1957)"}, "[3]": {"test_system": "colon", "details": "100 mg oral powder before the colonic prep"}, "[4]": {"test_system": "colon", "details": "100 mg oral capsule before the colonic prep"}},
  "data": [
    {"molecule": "O=C1/C(=C2\\Nc3ccc(S(=O)(=O)[O-])cc3C2=O)Nc2ccc(S(=O)(=O)[O-])cc21.[Na+].[Na+]", "note": "[indigo carmine]", "values": [
      {"measurement": "dye taken orally that was absorbed", "setting": "[1]", "result": 3, "unit": "%"},
      {"measurement": "clearance of absorbed food colorant from circulation", "setting": "[2]", "result": "cleared very rapidly"},
      {"measurement": "toxicity from oral administration", "setting": "oral administration", "result": "no reports of toxicity"},
      {"measurement": "daily intake certified by the FDA", "setting": "use as a food colorant", "result": "up to 2 mg/kg"},
      {"measurement": "side effects", "setting": "[3]", "result": "No side effects were observed"},
      {"measurement": "cases with good effect (staining), left colon", "setting": "[3]; left colon", "result": 50, "unit": "%"},
      {"measurement": "cases with good effect (staining), right colon", "setting": "[3]; right colon", "result": 80, "unit": "%"},
      {"measurement": "cases in which staining of the entire colon was ineffective", "setting": "[4]", "result": "over 90%"}
    ]}
  ]
}
